The text below walks through data of ChEMBL document CHEMBL1201862, “PubChem BioAssay data set” (2004).

SMILES strings stand for the structures. Activity calls are given as the source filed them.

The IC50 is the point on the concentration scale where inhibition reaches its midpoint. What is called AC50 is the midpoint of the concentration-response curve, whichever way the signal moves.

Test [1] addresses T1, Alkaline phosphatase, tissue-nonspecific isozyme (Homo sapiens, UniProt P05186).
T1 sequence (P05186 whole entry): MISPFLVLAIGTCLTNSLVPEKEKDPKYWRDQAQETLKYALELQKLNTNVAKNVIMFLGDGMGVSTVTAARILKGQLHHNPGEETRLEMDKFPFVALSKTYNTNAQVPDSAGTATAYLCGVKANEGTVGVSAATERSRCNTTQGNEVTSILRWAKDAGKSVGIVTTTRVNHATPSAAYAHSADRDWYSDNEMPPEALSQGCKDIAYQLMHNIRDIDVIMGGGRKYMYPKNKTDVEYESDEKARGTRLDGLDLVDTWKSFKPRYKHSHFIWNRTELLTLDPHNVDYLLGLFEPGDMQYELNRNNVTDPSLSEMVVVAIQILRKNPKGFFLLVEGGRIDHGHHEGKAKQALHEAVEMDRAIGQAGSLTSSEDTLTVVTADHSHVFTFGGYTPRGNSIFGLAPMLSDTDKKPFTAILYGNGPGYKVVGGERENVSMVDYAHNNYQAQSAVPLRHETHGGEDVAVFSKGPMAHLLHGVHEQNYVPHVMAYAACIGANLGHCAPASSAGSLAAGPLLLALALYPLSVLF
Briefly: potency against alkaline phosphatase TNAP – biochemical, luminescent, dose response, SAR follow-up (AID 1056).

In test [2] the target is Glyceraldehyde-3-phosphate dehydrogenase (Homo sapiens, UniProt P04406).
Sequence of Glyceraldehyde-3-phosphate dehydrogenase (P04406 whole entry): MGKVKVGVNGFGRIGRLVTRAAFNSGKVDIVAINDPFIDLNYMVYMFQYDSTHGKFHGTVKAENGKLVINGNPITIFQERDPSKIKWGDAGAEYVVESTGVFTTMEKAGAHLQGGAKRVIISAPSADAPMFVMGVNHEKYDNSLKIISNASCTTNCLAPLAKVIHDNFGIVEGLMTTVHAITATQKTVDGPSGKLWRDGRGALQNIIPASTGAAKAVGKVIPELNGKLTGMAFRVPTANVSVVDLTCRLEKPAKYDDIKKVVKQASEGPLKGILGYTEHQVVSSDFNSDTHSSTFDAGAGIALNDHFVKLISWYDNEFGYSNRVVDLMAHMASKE
Another test has as its target T2, Leucine aminopeptidase (Plasmodium falciparum 3D7, UniProt Q8IL11).
T2 sequence (Q8IL11 whole entry): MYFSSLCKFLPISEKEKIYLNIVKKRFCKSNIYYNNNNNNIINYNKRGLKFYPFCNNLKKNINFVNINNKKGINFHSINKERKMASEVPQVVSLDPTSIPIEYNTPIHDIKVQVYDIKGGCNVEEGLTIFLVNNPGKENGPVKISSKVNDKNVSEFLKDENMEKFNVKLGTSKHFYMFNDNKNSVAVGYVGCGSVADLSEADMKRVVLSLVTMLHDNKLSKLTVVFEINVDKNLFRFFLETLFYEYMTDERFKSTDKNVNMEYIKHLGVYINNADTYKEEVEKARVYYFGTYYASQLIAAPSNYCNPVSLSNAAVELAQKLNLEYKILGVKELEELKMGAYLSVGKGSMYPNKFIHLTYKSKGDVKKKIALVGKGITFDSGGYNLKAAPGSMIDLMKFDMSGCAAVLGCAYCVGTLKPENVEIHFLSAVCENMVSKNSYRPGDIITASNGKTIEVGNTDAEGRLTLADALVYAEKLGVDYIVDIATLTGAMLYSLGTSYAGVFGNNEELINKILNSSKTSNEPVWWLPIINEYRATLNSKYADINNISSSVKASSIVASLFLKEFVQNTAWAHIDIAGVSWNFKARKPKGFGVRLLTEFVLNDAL
Briefly: P. falciparum M17LAP inhibitors, primary screen, biochemical, fluorogenic H-Leu-NHMec substrate, 1536-well (AID 1619). The test is classed as functional.

Test [3] concerns the target T3, Corticotropin-releasing factor receptor 2/Corticotropin-releasing factor-binding protein (Homo sapiens, UniProt P24387+Q13324).
T3 sequence (Q13324 whole entry): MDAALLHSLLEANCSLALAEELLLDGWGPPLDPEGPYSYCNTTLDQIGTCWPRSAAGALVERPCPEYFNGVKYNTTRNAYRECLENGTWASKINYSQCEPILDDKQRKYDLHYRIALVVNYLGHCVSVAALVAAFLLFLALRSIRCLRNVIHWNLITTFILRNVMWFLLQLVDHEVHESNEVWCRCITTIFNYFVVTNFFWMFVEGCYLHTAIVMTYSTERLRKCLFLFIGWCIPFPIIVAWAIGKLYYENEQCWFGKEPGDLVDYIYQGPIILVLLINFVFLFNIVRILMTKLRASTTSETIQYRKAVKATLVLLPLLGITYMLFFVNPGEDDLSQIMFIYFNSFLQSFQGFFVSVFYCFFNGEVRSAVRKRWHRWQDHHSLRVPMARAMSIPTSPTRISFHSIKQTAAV
T3 sequence (P24387 whole entry): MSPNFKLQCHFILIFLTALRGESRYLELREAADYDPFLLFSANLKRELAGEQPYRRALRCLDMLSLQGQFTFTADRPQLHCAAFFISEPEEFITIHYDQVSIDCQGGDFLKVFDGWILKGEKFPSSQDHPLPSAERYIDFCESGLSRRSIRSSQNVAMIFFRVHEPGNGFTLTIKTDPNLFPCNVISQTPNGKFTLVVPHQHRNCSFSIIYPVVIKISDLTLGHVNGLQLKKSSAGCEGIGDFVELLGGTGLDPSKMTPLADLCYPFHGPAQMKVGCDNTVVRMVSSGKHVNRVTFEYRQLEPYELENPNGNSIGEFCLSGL
Briefly: activators of CRF receptor 2 with binding protein – uHTS hits, confirmation (AID 602473). In kind it is functional. The settings on record: read-out: EC50_Mean.

Test [4] deals with T4, Microphthalmia-associated transcription factor (Homo sapiens, UniProt O75030).
T4 sequence (O75030 whole entry): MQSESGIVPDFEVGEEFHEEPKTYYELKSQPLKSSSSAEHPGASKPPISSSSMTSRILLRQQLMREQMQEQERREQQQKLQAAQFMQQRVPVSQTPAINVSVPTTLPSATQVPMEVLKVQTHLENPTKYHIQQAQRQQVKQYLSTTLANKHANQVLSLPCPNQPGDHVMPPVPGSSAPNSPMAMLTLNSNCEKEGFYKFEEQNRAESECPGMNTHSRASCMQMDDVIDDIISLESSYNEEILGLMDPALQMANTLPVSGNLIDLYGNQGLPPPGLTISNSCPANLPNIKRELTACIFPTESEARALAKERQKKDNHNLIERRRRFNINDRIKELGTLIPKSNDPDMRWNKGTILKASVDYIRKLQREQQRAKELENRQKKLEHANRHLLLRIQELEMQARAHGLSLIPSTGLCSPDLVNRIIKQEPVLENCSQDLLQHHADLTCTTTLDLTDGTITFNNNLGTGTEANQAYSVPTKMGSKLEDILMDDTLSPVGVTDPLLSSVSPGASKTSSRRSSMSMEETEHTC
Briefly: reducers of TRPM1 reporter luminescence, concentration series – cell-based, SK-MEL-5, cherry-picked, set 3, MITF inhibitor project, dose response (AID 493073).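 Further: SK-MEL-5 melanoma cells with luciferase driven by the MITF target TRPM1 promoter.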 In kind it is functional.

For test [5], the target named is T5, Ubiquitin-conjugating enzyme E2 N (Homo sapiens, UniProt P61088).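 Further: Dose-response confirmation in a TR-FRET assay detecting UBC13-driven polyubiquitin chain formation, inhibition measured.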
T5 sequence (P61088 whole entry): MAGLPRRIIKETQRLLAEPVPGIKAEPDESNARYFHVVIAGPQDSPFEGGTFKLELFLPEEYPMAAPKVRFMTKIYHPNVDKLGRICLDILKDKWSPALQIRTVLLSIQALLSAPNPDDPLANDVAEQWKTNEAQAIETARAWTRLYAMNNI
The test is classed as functional.

In test [6] the target is Disintegrin and metalloproteinase domain-containing protein 17 (Homo sapiens, UniProt P78536). Briefly: inhibition of ADAM17 substrate cleavage – biochemical, quenched FRET substrate, counter-screen for ADAM10 exosite inhibitor project, dose response (AID 743253). (In general: A counterscreen serves to expose hits that act by an unwanted route or on another target.)
Sequence of Disintegrin and metalloproteinase domain-containing protein 17 (P78536 whole entry, the tested form may be a part): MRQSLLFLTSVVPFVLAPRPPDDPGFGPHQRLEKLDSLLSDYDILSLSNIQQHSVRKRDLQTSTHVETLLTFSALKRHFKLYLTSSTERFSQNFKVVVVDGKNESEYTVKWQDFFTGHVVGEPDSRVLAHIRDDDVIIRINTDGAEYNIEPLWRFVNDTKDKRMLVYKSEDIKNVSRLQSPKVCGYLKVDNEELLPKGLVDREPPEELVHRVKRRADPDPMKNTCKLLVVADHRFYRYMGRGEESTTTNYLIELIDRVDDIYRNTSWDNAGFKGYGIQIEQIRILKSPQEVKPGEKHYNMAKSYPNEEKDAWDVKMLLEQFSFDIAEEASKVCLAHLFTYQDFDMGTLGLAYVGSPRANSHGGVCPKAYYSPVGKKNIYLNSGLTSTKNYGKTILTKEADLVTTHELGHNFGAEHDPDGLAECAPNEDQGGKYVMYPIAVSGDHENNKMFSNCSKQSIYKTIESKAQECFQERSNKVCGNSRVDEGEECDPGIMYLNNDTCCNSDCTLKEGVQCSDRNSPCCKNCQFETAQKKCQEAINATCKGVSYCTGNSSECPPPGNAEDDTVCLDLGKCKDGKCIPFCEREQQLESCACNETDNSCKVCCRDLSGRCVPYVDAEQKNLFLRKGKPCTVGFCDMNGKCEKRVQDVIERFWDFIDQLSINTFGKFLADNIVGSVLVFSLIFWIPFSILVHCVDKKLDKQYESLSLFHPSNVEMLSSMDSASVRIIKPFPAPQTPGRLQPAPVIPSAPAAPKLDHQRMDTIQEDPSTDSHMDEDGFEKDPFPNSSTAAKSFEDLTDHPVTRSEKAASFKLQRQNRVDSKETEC
The next test has as its target T6, Cytochrome P450 1A2 (Homo sapiens, UniProt P05177).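 Further: PubChem cytochrome P450 panel assay, CYP1A2 panel member.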
T6 sequence (P05177 whole entry): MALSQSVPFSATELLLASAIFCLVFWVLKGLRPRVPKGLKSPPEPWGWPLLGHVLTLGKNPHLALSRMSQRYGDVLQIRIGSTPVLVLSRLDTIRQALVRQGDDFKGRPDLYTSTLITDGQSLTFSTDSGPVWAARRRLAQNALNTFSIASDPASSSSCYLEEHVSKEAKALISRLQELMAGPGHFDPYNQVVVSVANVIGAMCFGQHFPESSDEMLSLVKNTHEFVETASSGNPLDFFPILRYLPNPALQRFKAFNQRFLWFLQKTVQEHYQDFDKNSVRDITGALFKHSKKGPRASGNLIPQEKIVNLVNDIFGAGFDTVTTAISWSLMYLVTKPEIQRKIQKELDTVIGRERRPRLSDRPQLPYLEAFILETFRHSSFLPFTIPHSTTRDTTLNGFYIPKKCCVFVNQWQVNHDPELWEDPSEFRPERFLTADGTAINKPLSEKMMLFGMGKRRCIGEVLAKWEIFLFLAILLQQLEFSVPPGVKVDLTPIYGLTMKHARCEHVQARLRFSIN

Another test addresses T7, Streptokinase A (Streptococcus pyogenes serotype M1, UniProt P10520).
T7 sequence (P10520 whole entry): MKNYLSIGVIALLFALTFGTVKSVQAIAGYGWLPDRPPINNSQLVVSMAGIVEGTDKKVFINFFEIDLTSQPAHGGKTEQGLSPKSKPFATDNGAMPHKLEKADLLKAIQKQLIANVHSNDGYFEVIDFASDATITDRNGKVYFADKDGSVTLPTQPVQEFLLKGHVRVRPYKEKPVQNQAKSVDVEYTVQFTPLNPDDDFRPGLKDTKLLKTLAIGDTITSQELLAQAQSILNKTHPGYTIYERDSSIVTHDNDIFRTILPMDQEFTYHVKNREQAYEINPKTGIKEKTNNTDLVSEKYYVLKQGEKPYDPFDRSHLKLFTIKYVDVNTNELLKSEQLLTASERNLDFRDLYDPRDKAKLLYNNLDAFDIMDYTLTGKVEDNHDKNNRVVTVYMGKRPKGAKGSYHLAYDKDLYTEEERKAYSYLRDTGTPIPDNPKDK
Nature of the test: viability-normalized secreted streptokinase activity reduction – plasminogen activation absorbance, OD405, dose response (AID 1914).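 Further: secreted streptokinase activity via plasminogen activation per viability signal from cell pellet.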 The test is classed as functional, Streptococcus pyogenes M1 GAS.

The nature of another test: cells. In kind it is functional.
Test [7] is described as follows: Luminescence Cell-Based Dose Response HTS to Identify Activators of Luciferase Translation or Activity in H4 […] Cells. [Related pubchem assays: 1829 (Project Summary), 1814 (Primary HTS)]. The test is classed as functional.
For a further test, the target named is Cytochrome P450 2C9 (Homo sapiens, UniProt P11712).
Sequence of Cytochrome P450 2C9 (P11712 whole entry): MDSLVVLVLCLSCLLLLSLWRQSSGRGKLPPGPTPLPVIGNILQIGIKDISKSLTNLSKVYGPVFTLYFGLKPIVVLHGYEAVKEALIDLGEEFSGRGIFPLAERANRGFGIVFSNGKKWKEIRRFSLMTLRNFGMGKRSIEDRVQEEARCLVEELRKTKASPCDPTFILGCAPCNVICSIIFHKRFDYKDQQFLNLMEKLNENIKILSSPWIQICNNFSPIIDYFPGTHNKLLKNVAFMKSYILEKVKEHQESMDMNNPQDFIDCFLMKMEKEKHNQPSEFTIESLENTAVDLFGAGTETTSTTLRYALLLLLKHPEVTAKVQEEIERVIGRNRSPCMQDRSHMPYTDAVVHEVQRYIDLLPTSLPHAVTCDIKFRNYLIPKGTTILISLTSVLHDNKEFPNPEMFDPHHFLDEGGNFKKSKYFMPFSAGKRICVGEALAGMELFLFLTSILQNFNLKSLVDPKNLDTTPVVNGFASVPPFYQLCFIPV
The nature of test [8]: Luminescence Cell-Based Dose Confirmation HTS to Identify Activators of 5'UTR Stem-Loop Driven Alpha-Synuclein mRNA Translation in H4 Neuroglioblastoma Cells. [Related pubchem assays: 1829 (Project Summary), 1814 (Primary HTS)]. The test is classed as functional.
In another test the test system is H4. Briefly: Luminescence Cell-Based Dose Response HTS to Identify Activators of 5'UTR Stem-Loop Driven Prion Protein mRNA Translation in H4 Neuroglioblastoma Cells. [Related pubchem assays: 1829 (Project Summary), 1814 (Primary HTS)]. The settings on record: Homo sapiens. The test is classed as functional.
For test [9], the system named is Streptococcus sp. 'group A'. Briefly: Streptococcus pyogenes SK(-)GAS viability under kanamycin – luminescence, BacTiterGlo, confirmation, counter-screen for streptokinase expression inhibitor project, dose response (AID 1900). In kind it is functional, organism-based.
For another test, the system named is Streptococcus. Briefly: GAS UMAA2166 growth inhibition – luminescence, BacTiterGlo, counter-screen for streptokinase expression inhibitor project, dose response (AID 1915).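 Further: potency for reduction of bacterial viability or growth.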 In kind it is functional, organism-based.

As for `c1ccc(Cn2cnc(-c3cccnc3)c2)cc1`, the IC50 in [1] is > 100 µM (inactive); in test [2], > 100 µM (not active).
On to `Cc1ccc(S(=O)(=O)Nc2cnc3ccccc3c2)cc1`, for which the IC50 in test [1] was 44.9 µM (active); in test [2] it was > 100 µM (not active).
For the molecule `Cc1cccc(C(=O)NC(=S)NNC(=O)COc2c(C)cccc2C)c1`, on Leucine aminopeptidase, the IC50 is 59.1 µM (active). In test [3], the EC50 is 1.65 µM (active).
As to `CCN(CC)C(=O)c1cc(-c2cc(F)c(Cl)cc2Cl)n[nH]1`, the IC50 in [1] was 3.63 µM (active); in test [2], > 10 µM (inconclusive).
For `CCN(CC)CCNC(=O)c1c(C)n(-c2ccccc2)c2cc(Br)c(OC)cc12`, the AC50 in test [4] was 12.9 µM (active). The IC50 in test [5] is > 20 µM (inactive).
Turning to `CC(=O)c1ccc(N2CCC(c3cc(-c4ccc(Cl)cc4Cl)n[nH]3)CC2)c([N+](=O)[O-])c1`, the IC50 in [6] is > 69.5 µM (inactive). Further, on Cytochrome P450 1A2, the AC50 was 14.1 µM (inconclusive). For the same molecule, the EC50 at Streptokinase A is on record as > 150 µM (not active).
Consider `CC1CCN(CC2C(=O)O[C@@H]3C[C@@]4(C)CCC[C@H](C)C4=C[C@H]23)CC(C)(C)C1` (some centres undefined), for which, in [4], the half-maximal activity concentration (AC50) is 16.1 µM (active).
`CCCOC(=O)c1ccc(NC(=O)c2ccc(Br)o2)cc1`: the IC50 in the test “cells” is 30.5 µM (active).
`O=C(CN1C(=O)C2C3C=CC(C3)C2C1=O)Nc1ccc2c(c1)OCCO2` (centres undefined): the IC50 on Leucine aminopeptidase was 21 µM (active). Also, the values for the EC50 (in test [7]; in [8]; in the test on H4) were 22.4 µM (active), 15.1 µM (active) and 19 µM (active), respectively. The AC50 is 0.316 µM (inconclusive) on Cytochrome P450 2C9 and 15.8 µM (inconclusive) on Cytochrome P450 1A2.
With `CC(/C=C/c1ccccc1)=N\NC(=O)c1ccc2c(c1)OCCO2`, in “cells”, the IC50 is 25.7 µM (active).
As for `COc1ccc2c(c1OC)C(=O)N(c1nnc(SC)[nH]1)C2=O`, the IC50 in [1] is 34.1 µM (active); in test [2], > 100 µM (not active).
As for `O=C(Nc1ccc(N2CCCC2)c(S(=O)(=O)Nc2cccc(C(F)(F)F)c2)c1)c1cccs1`, the results for the EC50 (in test [9]; in the test with Streptococcus; at Streptokinase A) were 3.38 µM (active), 10.5 µM (active) and > 150 µM (not active), respectively. The IC50 in test [6] was > 69.5 µM (inactive).
With `COc1cc(OC)c2c(OC)cccc2n1`, the IC50 in the test “cells” was 30.1 µM (active).
